{"source": "paper PMC2967473", "about": "“PP2A1 Binding, Cell Transducing and Apoptotic Properties of Vpr77–92: A New Functional Domain of HIV-1 Vpr Proteins” (PLoS ONE, 2010)", "key": {"[1]": {"system": "HeLa cells", "test": "Cell penetration and localization of biotinylated peptides", "assay_type": "cell-based, human", "conditions": "150 µM biotinylated peptide, 2 h, 37°C, streptavidin-peroxydase/DAB staining, microscopy; for Cell penetration: fixation", "procedure": "A total of 4×10^4 exponentially proliferating HeLa cells growing in a sub confluent monolayer were seeded per well on a Lab-Tek and incubated at 37°C, 5% CO2. Biotinylated peptides were added 48 h later to the cells at different concentrations for different periods of time. Cells were washed twice in PBS, and fixed with absolute ethanol for 10 min at –20°C before addition of 100 µM of streptavidin HRP conjugate After 30 min incubation at 37°C, cells were rinsed twice in PBS and incubated with DAB for around 10 min. Cells were washed in distilled water and mounted for microscopic examination."}, "[2]": {"system": "PP2A1 holoenzyme", "test": "Affinity chromatography of PP2A1 on Vpr-T-agarose column, phosphorylase a phosphatase assay", "assay_type": "binding, pig", "conditions": "16 µg PP2A1 on 1 mL column, buffer C pH 7.4, linear gradient to 1 M NaCl, phosphorylase a as substrate", "procedure": "Figure 1 Analysis of HIV-1 Vpr and PP2A1 interaction. (A) 16 µg of PP2A1 holoenzyme purified from pig brain was loaded on a 1 mL HIV-1 strain 89.6-Vpr-T-agarose column equilibrated in buffer C (25 mM TrisHCl pH 7.4, 50 mM NaCl, 0.1 mM EDTA). The column was washed with 10 mL of buffer C and then developed with a 18 mL linear gradient of buffer C to buffer C plus 1 M NaCl. Phosphatase activity of collected fractions was assayed with phosphorylase a as substrat (1U = 1 pm of phosphate liberated by 10 µL of fraction/min). A major peak of phosphatase activity was detected, eluting at 0.3 M NaCl. (B) ECL revelation of PP2A binding assay on cellulose-bound Vpr peptides. 43 overlapping dodecapeptides with a two-amino acid shift scanning the entire 89.6-Vpr sequence (accession number: AAA81039) were synthesized on a cellulose membrane. The membrane was incubated with PP2A1 holoenzyme (upper panel) or PP2A-A subunit (lower panel) and subsequently with anti-PP2A antibodies followed by peroxydase-labelled anti-guinea pig antibodies. (C) Sequence of HIV-1 Vpr protein: sequence of the two PP2A-A binding sites are indicated in bold. These sequences correspond to overlapping sequences of positive dodecapeptides 29 to 32 (PP2A-A subunit incubation) or 39 to 41 (PP2A1 incubation). (D) Co-precipitation of DPT-Vpr peptides with PP2A1 in HeLa cell extracts. […]"}}, "note": "Residues, ends and D or L forms follow the SMILES beside them. *: point of attachment. Biotin = O=C1N[C@H]2[C@H](CS[C@H]2CCCCC(=O)*)N1"}
{"molecule": "CC[C@H](C)[C@H](NC(=O)CNC(=O)[C@@H](NC(=O)[C@H](CCCNC(=N)N)NC(=O)[C@H](CO)NC(=O)[C@H](Cc1c[nH]cn1)NC(=O)[C@H](CCCNC(=N)N)NC(=O)CCCC[C@@H]1SC[C@@H]2NC(=O)N[C@@H]21)[C@@H](C)CC)C(=O)N[C@H](C(=O)N[C@@H](CCC(N)=O)C(=O)N[C@@H](CCC(N)=O)C(=O)N[C@@H](CCCNC(=N)N)C(=O)N[C@@H](CCCNC(=N)N)C(=O)N[C@H](C(=O)N[C@@H](CCCNC(=N)N)C(=O)N[C@@H](CC(N)=O)C(=O)NCC(=O)O)[C@@H](C)O)[C@@H](C)CC", "note": "[DPT-Vpr1]", "values": [{"measurement": "Cell penetration", "setting": "[1]", "result": "penetrate into HeLa cells"}, {"measurement": "Intra-cellular localization", "setting": "[1]", "result": "homogeneous cytoplasm labeling"}]}
{"molecule": "CC[C@H](C)[C@H](NC(=O)CNC(=O)[C@@H](NC(=O)[C@H](C)NC(=O)[C@H](CO)NC(=O)[C@H](Cc1c[nH]cn1)NC(=O)[C@H](C)NC(=O)CCCC[C@@H]1SC[C@@H]2NC(=O)N[C@@H]21)[C@@H](C)CC)C(=O)N[C@H](C(=O)N[C@@H](CCC(N)=O)C(=O)N[C@@H](CCC(N)=O)C(=O)N[C@@H](CCCNC(=N)N)C(=O)N[C@@H](CCCNC(=N)N)C(=O)N[C@@H](C)C(=O)N[C@@H](CCCNC(=N)N)C(=O)N[C@@H](CC(N)=O)C(=O)NCC(=O)O)[C@@H](C)CC", "note": "[DPT-Vpr3] (Biotin-AHSAIGIIQQRRARNG-OH)", "values": [{"measurement": "Cell penetration", "setting": "[1]", "result": "penetrate into HeLa cells"}, {"measurement": "Intra-cellular localization", "setting": "[1]", "result": "homogeneous cytoplasm labeling"}]}
{"molecule": "N=C(N)NCCC[C@H](NC(=O)[C@H](CCCNC(=N)N)NC(=O)[C@H](CCC(N)=O)NC(=O)[C@H](CCCNC(=N)N)NC(=O)[C@H](CCCNC(=N)N)NC(=O)[C@H](CCCCN)NC(=O)[C@H](CCCCN)NC(=O)[C@H](CCCNC(=N)N)NC(=O)CNC(=O)[C@H](Cc1ccc(O)cc1)NC(=O)CCCC[C@@H]1SC[C@@H]2NC(=O)N[C@@H]21)C(=O)O", "note": "[Tat, reference compound] (Biotin-YGRKKRRQRR-OH)", "values": [{"measurement": "Cell penetration", "setting": "[1]", "result": "penetrate into HeLa cells"}, {"measurement": "Intra-cellular localization", "setting": "[1]", "result": "homogeneous cytoplasm labeling"}]}
{"molecule": "Vpr-T: full length HIV-1 89.6-Vpr in a 6-his C-term tagged form, expressed in bacteria (protein, left off: His6, C-terminal, kept, full length HIV-1 89.6-Vpr in a 6-his C-term tagged form, expressed in bacteria) MEQAPEDQGPQREPYNDWTLELLEELKNEAVRHFPRIWLHSLGQHIYETYGDTWTGVEALIRILQQLLFIHFRIGCRHSRIGIIQQRRTRNGASKS", "values": [{"measurement": "NaCl concentration at which bound PP2A1 phosphatase activity elutes from the Vpr-T-agarose column", "setting": "[2]", "result": 0.3, "unit": "M NaCl"}]}
